Experimental findings from publication PMC8086025, “A benzopyran with antiarrhythmic activity is an inhibitor of Kir3.1-containing potassium channels” (The Journal of Biological Chemistry, 2021) are described below.

The target of one data set is hERG channel (Homo sapiens, UniProt Q12809). The data set can be described thus: hERG currents in Xenopus oocytes, TEVC.
The target in a further data set is T1, NaV1.2 and NaVβ1 (Rattus norvegicus, UniProt P04775).
T1 construct: expressed in transfected cells; host or cells: Xenopus oocytes
Put plainly: NaV1.2 currents in Xenopus oocytes. Type of data set: cell-based.

Another data set concerns the target T2, Kir3.1/2 channel (UniProt P48542+P48549).
T2 sequence (P48549 1-501): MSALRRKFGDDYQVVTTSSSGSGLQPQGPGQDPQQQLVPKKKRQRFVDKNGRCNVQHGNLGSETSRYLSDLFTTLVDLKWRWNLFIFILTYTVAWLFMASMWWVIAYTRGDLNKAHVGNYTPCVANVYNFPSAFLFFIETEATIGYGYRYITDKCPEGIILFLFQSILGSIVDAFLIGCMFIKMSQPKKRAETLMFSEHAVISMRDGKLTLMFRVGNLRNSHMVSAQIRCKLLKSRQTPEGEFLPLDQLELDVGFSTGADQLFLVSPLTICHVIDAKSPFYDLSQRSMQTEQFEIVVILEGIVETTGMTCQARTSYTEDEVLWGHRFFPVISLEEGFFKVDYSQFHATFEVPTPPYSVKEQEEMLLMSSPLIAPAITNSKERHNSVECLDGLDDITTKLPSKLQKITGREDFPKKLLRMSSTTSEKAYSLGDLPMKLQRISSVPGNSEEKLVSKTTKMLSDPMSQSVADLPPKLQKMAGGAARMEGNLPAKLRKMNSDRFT
T2 sequence (P48542 1-425): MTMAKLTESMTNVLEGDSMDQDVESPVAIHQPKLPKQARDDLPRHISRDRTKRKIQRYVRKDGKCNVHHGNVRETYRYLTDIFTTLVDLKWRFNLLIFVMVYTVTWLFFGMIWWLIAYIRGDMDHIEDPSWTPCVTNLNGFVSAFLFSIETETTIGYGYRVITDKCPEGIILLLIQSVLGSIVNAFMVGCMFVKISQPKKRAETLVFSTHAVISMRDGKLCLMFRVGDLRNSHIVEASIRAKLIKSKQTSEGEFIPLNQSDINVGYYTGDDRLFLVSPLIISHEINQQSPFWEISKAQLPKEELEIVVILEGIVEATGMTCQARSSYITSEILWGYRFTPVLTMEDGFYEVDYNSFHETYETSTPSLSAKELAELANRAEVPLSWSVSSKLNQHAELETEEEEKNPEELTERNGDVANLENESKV
Put plainly: Whole-cell patch clamp, HEK293T cells, Kir3.1/2. Type of data set: cell-based, human Kir3.1, mouse Kir3.2. Details: expressed in transfected cells; host or cells: HEK293T. As to conditions: whole-cell patch-clamp HEK-293 cells; read-out: IC50, inhibition of Kir3.1/2. On the procedure: For the experiments shown in Figure 1, G and H, whole-cell currents were recorded with an Axopatch 200B amplifier and pCLAMP software (Molecular Devices). HEK293T cells were transiently transfected with 1 μg Kir3.1 together with 1 μg Kir3.2 or 1 μg Kir3.4 DNA, using polyethylenimine (PEI). The cells were maintained in DMEM supplemented with 10% Fetal Bovine Serum and 1% Penicillin/Streptomycin at 37 °C in a 5% CO2 humidified atmosphere and were studied 24 to 48 h after transfection. HEK293T cells were bathed in Low K^+ (LK) solution (135 mM NaCl, 5 mM KCl, 1.2 mM MgCl2, 1.5 mM CaCl2, 8 mM Glucose, 10 mM HEPES with pH 7.4). High K^+ (HK) solution (5 mM NaCl, 135 mM KCl, 1.2 mM MgCl2, 1.5 mM CaCl2, 8 mM Glucose, 10 mM HEPES with pH 7.4) was perfused to establish basal currents. BP-G1 in HK solution was perfused sequentially in a concentration response manner prior to applying 5 mM BaCl2 in HK to identify remaining barium-insensitive leak currents and subtract them from the current records. […] Cells used in the experiments were selected based on eGFP fluorescence. A ramp protocol from −80 mV to +80 mV was used and currents were recorded at −80 mV in the whole-cell mode (using the Strathclyde Electrophysiology Software from the University of Strathclyde, Glasgow). The patch-clamp data were analyzed offline in pClamp (Molecular Devices) and OriginLab software. […]
In general terms: In patch-clamp work, channel activity is measured electrically.

Data set [1] concerns the target T3, Kir3.4/4(S143F) with E147A in the Kir3.4(S143F) subunit (Homo sapiens, UniProt P48544, E147A/S143F).
T3 construct: expressed in transfected cells; host or cells: Xenopus laevis oocytes (cRNA injection)
Put plainly: TEVC in Xenopus oocytes, E147A mutant in the Kir3.4(S143F) subunit. The conditions noted are these: 1 μM. Type of data set: cell-based. On the procedure: X. laevis oocytes were isolated and microinjected as previously described ([6]). Human Kir3.1, mouse Kir3.2, and human Kir3.4 DNA constructs were used for electrophysiology experiments. All cRNA constructs were injected in the amount of 2 ng per oocyte. Injected oocytes were incubated for 2 to 3 days at 18 °C to allow for expression. Whole-cell oocyte currents were then measured using a GeneClamp 500 amplifier (Axon Instruments). Microelectrodes had resistances of 0.5 to 1 megohm using a 3M KCl solution in 1.4% agarose. Oocytes were perfused with a low K^+ (LK) solution ND96 (2 mM KCl, 96 mM NaCl, 1 mM MgCl2, 1.8 mM CaCl2, 5 mM HEPES-Na) to establish a baseline for the recordings. Basal current was measured in a high potassium (HK) solution ND96K (96 mM KCl, 10 mM HEPES-K, 1 mM MgCl2, 1.8 mM CaCl2). To block the current, the oocyte chamber was perfused with 4 mM BaCl2 in ND96K. Only the Barium-sensitive current was used for statistical analysis. To measure the inhibitory activity of the channels, 1 μM BP-G1 in ND96K (HK) was used. Typically, oocytes were held at 0 mV (EK) and the current was monitored constantly using a ramp protocol with a command potential from −80 to +80 mV. Current amplitude was measured at the end of a 1 s sweep. All currents were analyzed when they reached steady state. Error bars in the figures represent SD (N > 4).

The next data set deals with T4, Adenosine A1 (Homo sapiens, UniProt P30542).
T4 construct: expressed in transfected cells; host or cells: CHO cells
Put plainly: Radioligand binding, [3H]DPCPX. As to conditions: read-out: % Specific Binding at 10 µM.

The structures appear in SMILES notation. Values joined by “and” are separate entries in the source; they are usually repeats but may differ in a detail not shown here. Equal values may be shown once. “Also recorded” adds a separate entry of the source.

Sequence of hERG channel (Q12809 whole entry): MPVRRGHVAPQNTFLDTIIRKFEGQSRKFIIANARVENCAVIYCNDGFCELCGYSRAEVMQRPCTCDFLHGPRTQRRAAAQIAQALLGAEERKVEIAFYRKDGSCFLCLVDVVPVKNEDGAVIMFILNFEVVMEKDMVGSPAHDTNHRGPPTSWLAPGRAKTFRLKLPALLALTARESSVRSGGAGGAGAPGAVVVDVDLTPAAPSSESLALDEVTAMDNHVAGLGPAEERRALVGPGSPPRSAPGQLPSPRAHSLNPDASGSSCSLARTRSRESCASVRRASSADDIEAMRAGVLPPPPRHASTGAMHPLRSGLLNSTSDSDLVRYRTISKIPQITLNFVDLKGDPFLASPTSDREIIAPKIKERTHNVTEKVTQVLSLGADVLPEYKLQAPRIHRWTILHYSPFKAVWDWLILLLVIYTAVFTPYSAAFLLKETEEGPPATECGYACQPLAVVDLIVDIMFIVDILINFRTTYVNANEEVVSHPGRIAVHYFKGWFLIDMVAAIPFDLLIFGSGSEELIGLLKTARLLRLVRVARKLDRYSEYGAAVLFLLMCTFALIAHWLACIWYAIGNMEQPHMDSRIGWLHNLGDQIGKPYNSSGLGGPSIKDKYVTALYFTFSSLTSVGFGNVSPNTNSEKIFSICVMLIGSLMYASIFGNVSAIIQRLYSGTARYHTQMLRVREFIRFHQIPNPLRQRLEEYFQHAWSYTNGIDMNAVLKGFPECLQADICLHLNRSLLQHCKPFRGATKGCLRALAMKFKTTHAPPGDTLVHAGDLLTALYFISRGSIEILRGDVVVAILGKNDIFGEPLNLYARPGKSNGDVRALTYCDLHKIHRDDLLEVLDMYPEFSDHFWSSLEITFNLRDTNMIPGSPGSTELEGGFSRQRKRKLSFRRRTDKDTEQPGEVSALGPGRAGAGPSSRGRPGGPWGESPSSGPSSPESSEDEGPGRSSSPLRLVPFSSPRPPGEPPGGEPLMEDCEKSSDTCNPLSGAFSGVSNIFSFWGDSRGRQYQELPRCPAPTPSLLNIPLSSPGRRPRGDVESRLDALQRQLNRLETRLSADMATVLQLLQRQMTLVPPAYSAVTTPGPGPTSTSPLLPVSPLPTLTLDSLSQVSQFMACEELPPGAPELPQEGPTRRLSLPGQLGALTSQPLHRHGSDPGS
T1 sequence (P04775 whole entry): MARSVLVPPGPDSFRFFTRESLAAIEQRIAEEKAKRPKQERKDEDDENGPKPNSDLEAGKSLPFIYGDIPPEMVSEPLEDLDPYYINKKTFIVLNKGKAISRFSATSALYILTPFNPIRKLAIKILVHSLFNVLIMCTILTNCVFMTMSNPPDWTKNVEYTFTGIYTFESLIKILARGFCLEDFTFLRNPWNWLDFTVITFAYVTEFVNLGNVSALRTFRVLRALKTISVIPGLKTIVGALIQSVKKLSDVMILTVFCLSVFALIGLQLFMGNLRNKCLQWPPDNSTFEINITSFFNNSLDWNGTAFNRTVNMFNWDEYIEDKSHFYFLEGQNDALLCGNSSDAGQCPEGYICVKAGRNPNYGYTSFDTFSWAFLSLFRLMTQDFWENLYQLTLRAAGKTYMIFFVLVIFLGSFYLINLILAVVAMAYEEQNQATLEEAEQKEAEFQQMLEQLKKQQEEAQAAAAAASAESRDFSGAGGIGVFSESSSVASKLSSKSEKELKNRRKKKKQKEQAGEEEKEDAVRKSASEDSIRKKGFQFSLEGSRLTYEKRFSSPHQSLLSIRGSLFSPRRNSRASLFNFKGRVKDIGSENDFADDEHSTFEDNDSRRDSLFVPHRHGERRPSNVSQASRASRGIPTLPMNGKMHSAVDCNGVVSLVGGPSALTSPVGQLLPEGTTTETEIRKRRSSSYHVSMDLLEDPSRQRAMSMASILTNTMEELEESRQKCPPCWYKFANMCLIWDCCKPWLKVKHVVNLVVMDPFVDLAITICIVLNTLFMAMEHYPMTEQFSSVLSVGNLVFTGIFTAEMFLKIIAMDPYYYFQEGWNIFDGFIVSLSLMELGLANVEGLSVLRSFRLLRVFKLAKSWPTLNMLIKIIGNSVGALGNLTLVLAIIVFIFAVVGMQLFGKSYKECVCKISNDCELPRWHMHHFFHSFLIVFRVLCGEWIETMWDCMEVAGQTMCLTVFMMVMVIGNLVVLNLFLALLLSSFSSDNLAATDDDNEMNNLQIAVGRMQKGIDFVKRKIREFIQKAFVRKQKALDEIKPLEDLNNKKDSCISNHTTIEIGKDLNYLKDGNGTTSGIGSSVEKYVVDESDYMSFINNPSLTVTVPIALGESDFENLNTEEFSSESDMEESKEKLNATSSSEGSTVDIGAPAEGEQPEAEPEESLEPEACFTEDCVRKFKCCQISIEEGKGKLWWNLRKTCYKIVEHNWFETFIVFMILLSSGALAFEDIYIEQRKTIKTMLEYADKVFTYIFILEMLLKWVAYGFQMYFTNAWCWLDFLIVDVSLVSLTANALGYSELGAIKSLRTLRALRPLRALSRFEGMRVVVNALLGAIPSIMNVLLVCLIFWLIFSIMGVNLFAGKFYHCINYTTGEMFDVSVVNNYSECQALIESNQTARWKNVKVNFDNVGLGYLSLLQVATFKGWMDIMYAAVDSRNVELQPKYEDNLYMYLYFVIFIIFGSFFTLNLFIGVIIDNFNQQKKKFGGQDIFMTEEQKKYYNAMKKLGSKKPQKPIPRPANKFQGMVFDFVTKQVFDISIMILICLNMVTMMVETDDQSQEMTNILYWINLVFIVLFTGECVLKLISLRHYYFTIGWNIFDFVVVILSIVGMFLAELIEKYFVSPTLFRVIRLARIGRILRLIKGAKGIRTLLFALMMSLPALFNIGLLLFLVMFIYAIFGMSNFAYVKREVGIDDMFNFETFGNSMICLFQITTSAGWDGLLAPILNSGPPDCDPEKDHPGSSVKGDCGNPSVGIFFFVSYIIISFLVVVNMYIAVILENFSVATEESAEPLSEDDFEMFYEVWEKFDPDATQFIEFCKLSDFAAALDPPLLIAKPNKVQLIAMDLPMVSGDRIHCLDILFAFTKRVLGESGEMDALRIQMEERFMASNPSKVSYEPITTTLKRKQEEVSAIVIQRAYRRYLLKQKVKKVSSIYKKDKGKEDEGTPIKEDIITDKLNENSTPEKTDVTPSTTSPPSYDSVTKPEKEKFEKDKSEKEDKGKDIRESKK
T1 sequence (Q00954 19-218 partner): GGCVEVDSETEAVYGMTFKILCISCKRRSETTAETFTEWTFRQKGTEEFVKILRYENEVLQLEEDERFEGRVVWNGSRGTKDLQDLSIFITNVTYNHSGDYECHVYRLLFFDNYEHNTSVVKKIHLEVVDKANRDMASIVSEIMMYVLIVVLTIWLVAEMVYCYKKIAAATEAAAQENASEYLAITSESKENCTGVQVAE
T3 sequence (P48544 whole entry S143F/E147A): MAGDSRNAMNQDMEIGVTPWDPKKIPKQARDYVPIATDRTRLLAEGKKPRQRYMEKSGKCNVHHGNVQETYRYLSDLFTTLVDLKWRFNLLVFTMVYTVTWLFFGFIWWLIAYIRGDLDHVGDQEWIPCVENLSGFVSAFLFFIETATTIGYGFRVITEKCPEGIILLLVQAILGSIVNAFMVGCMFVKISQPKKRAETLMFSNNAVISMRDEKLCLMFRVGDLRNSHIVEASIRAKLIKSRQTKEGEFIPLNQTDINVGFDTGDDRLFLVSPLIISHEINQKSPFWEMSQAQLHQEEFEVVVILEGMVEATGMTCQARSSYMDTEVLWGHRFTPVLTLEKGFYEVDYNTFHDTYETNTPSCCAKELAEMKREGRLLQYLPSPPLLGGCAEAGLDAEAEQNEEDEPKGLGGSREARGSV
T3 sequence (P48544 whole entry, stated change not applied): as the sequence (P48544 whole entry S143F/E147A) above, with F143S, A147E counted along it
T4 sequence (P30542 whole entry): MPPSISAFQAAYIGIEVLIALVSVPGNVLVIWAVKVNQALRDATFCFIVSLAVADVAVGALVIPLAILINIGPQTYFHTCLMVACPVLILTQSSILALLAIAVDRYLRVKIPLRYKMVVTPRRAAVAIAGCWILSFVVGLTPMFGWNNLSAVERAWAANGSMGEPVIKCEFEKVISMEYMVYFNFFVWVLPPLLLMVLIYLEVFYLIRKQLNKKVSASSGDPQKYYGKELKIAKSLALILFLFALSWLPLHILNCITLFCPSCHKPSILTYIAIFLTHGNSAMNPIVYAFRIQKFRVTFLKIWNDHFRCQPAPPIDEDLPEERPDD

For `Cc1cc(CO)nc2cc3c(cc12)OC(C)(C)[C@H](O)[C@H]3NCCc1ccccc1` [BP-G1, (3R,4S)-7-(hydroxymethyl)-2,2,9-trimethyl-4-(2-phenylethylamino)-3,4-dihydropyrano[2,3-g]quinolin-3-ol], the IC50 against hERG channel was > 5000 nM; on Kir3.1/2 channel, 10 to 30 nM and 32.2 nM. Further, the “inhibitory activity on hERG current” value at hERG channel (up to 5 μM, Xenopus oocytes) is “did not show inhibitory activity; also recorded: not inhibited”. For the same compound, at NaV1.2 and NaVβ1 (10 µM), the “block of TTX-sensitive NaV1.2 currents” value was “did not block”. In addition, on NaV1.2 and NaVβ1 (10 μM BP-G1, vehicle -2.16 ± 0.36 μA, mean ± SD, N=10), the “average NaV1.2 current” value was -2.17 μA. For the same compound, on NaV1.2 and NaVβ1 (Table S1), the “IC50, NaV1.2” value was > 10000 nM. The “block of Kir3.4/4(S143F) carrying E147A” value in data set [1] is “abolished block”. Moreover, on Adenosine A1, the inhibition at 10 µM amounted to 38.4%.
